Experiments:
[1] = tested on: iPSCs derived mammary gland organoids; assay: Flow cytometry quantification of mammary gland progenitor markers during 3D differentiation of iPSCs; type: cell-based, human; settings: 20 ng/mL BMP4, 1 μM RA, single or combination, 42 days or 31 days protocol, vs control condition
Text: In order to generate milk bioactives that closely resemble those found in human breast milk, different methods using bone morphogenetic protein 4 (BMP4) and retinoic acid (RA) in 42 days and 31 days as a shortened time-course protocol were established in a 3D-platform using iPSCs derived mammary gland organoids as a biomimetic model of the human mammary gland (FIG. 6).

[2] = tested on: iPS-derived mammary-gland cells; assay: LC-MS/MS targeted proteomic analysis of osteopontin secretion in culture media; type: cell-based, human; settings: BMP4 and RA added to the differentiation culture medium

CC1=C(/C=C/C(C)=C/C=C/C(C)=C/C(=O)O)C(C)(C)CCC1 [RA, retinoic acid]
expression of mammary gland progenitor markers EpCAM (CD326), CD49f, MUC1 (CD227), GATA3 [1]: can induce the expression of mammary gland progenitor markers | expression and secretion of milk-specific bioactive marker osteopontin (OPN) [2]: improve expression and secretion levels of milk-specific bioactive markers

B1: BMP4: bone morphogenetic protein 4, differentiation factor added to the culture medium (protein, UniProt P12644 293-408, looked up)
Bone morphogenetic protein 4: SPKHHSQRARKKNKNCRRHSLYVDFSDVGWNDWIVAPPGYQAFYCHGDCPFPLADHLNSTNHAIVQTLVNSVNSSIPKACCVPTELSAISMLYLDEYDKVVLKNYQEMVVEGCGCR
expression of mammary gland progenitor markers EpCAM (CD326), CD49f, MUC1 (CD227), GATA3 [1]: can induce the expression of mammary gland progenitor markers | expression and secretion of milk-specific bioactive marker osteopontin (OPN) [2]: improve expression and secretion levels of milk-specific bioactive markers

Source: patent US20260283968A1, “METHOD FOR PRODUCING MILK LIKE PRODUCTS” (SOCIÉTÉ DES PRODUITS NESTLÉ S.A., priority 2023, published 2026)
